Assays:
Format in all cases: functional
Thrips tabaci = assay: Thrips luring activity against female Thrips tabaci (onion thrips) assessed as ratio of thrips in baited traps to unbaited traps during field trapping study
Thrips obscuratus [1] = assay: Thrips luring activity against male New Zealand Thrips obscuratus (flower thrips) assessed as ratio of thrips in baited traps to unbaited traps during field trapping study
Thrips obscuratus [2] = assay: Thrips luring activity against female New Zealand Thrips obscuratus (flower thrips) assessed as ratio of thrips in baited traps to unbaited traps during field trapping study

Row | SMILES | Ratio (Thrips tabaci) | Ratio (Thrips obscuratus [1]) | Ratio (Thrips obscuratus [2])
1 | CC(=O)c1ccccc1N [2-AMINOACETOPHENONE] | 6 | 26.7 | 20.7
2 | OCCc1ccncc1 [4-(2-HYDROXYETHYL)PYRIDINE] | 1.3 | 0 | 0
3 | O=Cc1ccncc1 [4-FORMYLPYRIDINE] | 1.6 | 4.9 | 7.9
4 | CC(=O)/C=C/C1C(C)=CCCC1(C)C (stereo not drawn) [ALPHA-IONONE] | 1.3 | 0 | 1.8
5 | COc1ccc(C=O)cc1 [ANISALDEHYDE] | 4 | 22.6 | 26.2
6 | O=Cc1ccccc1 [BENZALDEHYDE] | 4 | 3.6 | 5
7 | CC(=O)/C=C/C1=C(C)CCCC1(C)C [BETA-IONONE] | 2.6 | 3.8 | 1.8
8 | ClC(Cl)Cl [CHLOROFORM] | 1.1 | 10.1 | 0
9 | CC/C=C\CC1=C(C)CCC1=O [CIS-JASMONE] | 1.2 | 24.5 | 42.1
10 | CCC(=O)c1ccncc1 [ETHYL 4-PYRIDYLKETONE] | 13.5 | 0 | 19.4
11 | CCOC(=O)c1ccccc1N [ETHYL ANTHRANILATE] | 1.1 | 0.6 | 1.6
12 | CCOC(=O)c1ccccc1 [ETHYL BENZOATE] | 2.1 | 24.8 | 35.4
13 | CCOC(=O)c1ccncc1 [ETHYL ISONICOTINATE] | 30.8 | 28.5 | 31.6
14 | CCOC(=O)C1CCNCC1 [ETHYL ISONIPECOTATE] | 4 | 0 | 0
15 | CCOC(=O)c1cccnc1 [ETHYL NICOTINATE] | 3.1 | 84.8 | 157.6
16 | CCOC(=O)c1ccccn1 [ETHYL PICOLINATE] | 2.8 | 5.9 | 4.1

Row | SMILES | Ratio (Thrips tabaci) | Ratio (Thrips obscuratus [1]) | Ratio (Thrips obscuratus [2])
17 | CCOC(=O)c1ccccc1O [ETHYL SALICYLATE] | 3 | 48.5 | 32.6
18 | CCOC(=O)c1ccnc(Cl)c1 [ETHYL-2-CHLOROPYRIDINE-4-CARBOXYLATE] | 1.7 | 19.3 | 15.1
19 | CCCCCCOC(=O)c1ccncc1 [ISONICOTINIC ACID HEXYL ESTER] | 1.2 | 0 | 0
20 | N#Cc1ccncc1 [ISONICOTINONITRILE] | 2.4 | 19.9 | 0
21 | CC(C)OC(=O)c1ccncc1 [ISOPROPYL ISONICOTINATE] | 8.8 | 0 | 9
22 | CC(=O)c1ccncc1 [METHYL 4-PYRIDYLKETONE] | 7.6 | 10.3 | 0
23 | COC(=O)c1ccccc1N [METHYL ANTHRANILATE] | 3.5 | 22.1 | 28.3
24 | COC(=O)c1ccccc1 [METHYL BENZOATE] | 6.6 | 50.5 | 49.1
25 | COC(=O)c1ccncc1 [METHYL ISONICOTINATE] | 18.9 | 5.1 | 44.1
26 | CC/C=C\CC1C(=O)CCC1CC(=O)OC (stereo unspecified) [METHYL JASMONATE] | 0.7 | 0.9 | 0.8
27 | COC(=O)c1ccccc1O [METHYL SALICYLATE] | 4 | 13.3 | 24.8
28 | CCCCCCCCCCOC(=O)c1ccncc1 [N-DECYL ISONICOTINATE] | 6.8 | 0 | 14.9
29 | CCCOC(=O)c1ccncc1 [N-PROPYL ISONICOTINATE] | 15.4 | 0 | 9
30 | OCCc1ccccc1 [PHENYLETHYL ALCOHOL] | 3.8 | 9.5 | 9.8
31 | c1cc(C2OCCO2)ccn1 [PYRIDINE, 4-(1,3-DIOXALAN-2-YL)] | 5.3 | 20.4 | 16.6
32 | O=Cc1ccccc1O [SALICYLADEHYDE] | 1.9 | 15.7 | 20.7

From ChEMBL document CHEMBL3046205, “4-pyridyl carbonyl and related compounds as thrips lures: effectiveness for onion thrips and new zealand flower thrips in field experiments” (2007)
